Experimental data as given in patent US11351264B2, “PAR2 mimetic peptides and uses thereof” (ARIZONA BOARD OF REGENTS ON BEHALF OF THE UNIVERSITY OF …, priority 2016, dated 2022).
Primed or numbered codes have the meaning given here. *: point of attachment. 2at = 2-aminothiazol-4-yl N-terminal cap, Nc1nc(*)cs1; Hdc = hexadecyl (lipid tether group); PEG3′ = not defined here

Experiments:
Assay type in all cases: cell-based
[1] = biological target: T1, PAR2 (Homo sapiens, UniProt P55085); assay: RTCA screen (xCELLigence in vitro physiological signalling assay)
T1 sequence (P55085 26-397): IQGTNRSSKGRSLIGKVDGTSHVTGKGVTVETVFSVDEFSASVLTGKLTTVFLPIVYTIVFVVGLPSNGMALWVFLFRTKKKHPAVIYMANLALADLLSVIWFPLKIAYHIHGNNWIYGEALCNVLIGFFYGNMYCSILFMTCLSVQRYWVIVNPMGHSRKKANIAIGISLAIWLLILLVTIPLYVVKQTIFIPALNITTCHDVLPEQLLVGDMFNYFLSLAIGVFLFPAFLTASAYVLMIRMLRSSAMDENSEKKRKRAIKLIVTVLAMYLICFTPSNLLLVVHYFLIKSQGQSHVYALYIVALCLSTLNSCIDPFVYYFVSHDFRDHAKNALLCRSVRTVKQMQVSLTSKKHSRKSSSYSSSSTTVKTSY
From the text: FIGS. 5A-B show in vitro physiological PAR2 agonist screening using xCELLigence. […] This compound was a biased-signalling antagonist in that it had no effect on mitogen activated protein kinase (MAPK) signalling, the other major signalling pathway activated via PAR2. […] Thus, experiments screened a series of potential PAR2 ligands with a heterocycle serine substitute followed by four amino acids (XXGR) and the PEG3-Hdc lipid tether. […], C595 and […] are novel pharmacological tools that can be used to evaluate the physiological consequences of PAR2 full and biased ligand signalling.

[2] = biological target: T1, PAR2; assay: Mitogen activated protein kinase (MAPK) signalling activated via PAR2; conditions: for Effect on MAPK signalling (as antagonist): C608 at nanomolar concentrations
From the text: (§1) This compound was a biased-signalling antagonist in that it had no effect on mitogen activated protein kinase (MAPK) signalling, the other major signalling pathway activated via PAR2. […] C595 is closely related to the previously described potent and specific PAR2 agonist, 2-at-LIGR (SEQ ID NO: 1)-PEG3-Hdc. Thus, experiments screened a series of potential PAR2 ligands with a heterocycle serine substitute followed by four amino acids (XXGR) and the PEG3-Hdc lipid tether. […] C562, C595 and C608 are novel pharmacological tools that can be used to evaluate the physiological consequences of PAR2 full and biased ligand signalling.

[3] = biological target: T1, PAR2; assay: PAR2 Ca2+ signalling in cultured human bronchial epithelial cells (16HBE14o-); parameters: endogenous in cells; host or cells: 16HBE14o- human bronchial epithelial cells; conditions: for Block of PAR2 Ca2+ signalling elicited via protease activation: Alternaria alternata filtrates; for Block of PAR2 Ca2+ signalling elicited via protease activation / Block of PAR2 Ca2+ signalling elicited via peptidomimetics: 16HBE14o- cells, C608 at nanomolar concentrations; for Block of PAR2 Ca2+ signalling elicited via peptidomimetics: activation by 2-at-LIGRL-NH2
From the text: as §1

Compound Summary as Determined by RTCA Screen [1]	Substance	also measured
No Activity at PAR2 Detected	2at-4thiazolamine-IGR-PEG3-Hdc [Compound 23]	
No Activity at PAR2 Detected	2at-(dL)IGR-PEG3-Hdc [Compound 24]	
No Activity at PAR2 Detected	2at-(dT)IGR-PEG3-Hdc [Compound 26]	
No Activity at PAR2 Detected	2at-(dl)IGR-PEG3-Hdc [Compound 25]	
No Activity at PAR2 Detected	2at-DIGR-PEG3-Hdc [Compound 15]	
PAR2 Agonist	2at-HIGR-PEG3-Hdc [Compound 16]	
Full PAR2 Agonist	2at-LIGR-PEG3-Hdc [Compound 12]	
Full PAR2 Agonist	2at-LKGR-PEG3-Hdc [Compound 11]	
No Activity at PAR2 Detected	2at-SHGR-PEG3-Hdc [Compound 8]	
No Activity at PAR2 Detected	2at-SIGR-PEG3-Hdc [Compound 13]	
	2at-SKGR-PEG3-Hdc (2at-SKGR-{PEG3′-Hdc}) [Compound 6]	Antagonistic activity against peptidomimetic activation ([1]; xCELLigence in vitro physiological signalling assay): maintained antagonistic activity
PAR2 Antagonist	2at-SKGRS-PEG3-Hdc (2at-SKGRS-{PEG3′-Hdc}) [Compound 5]	Effect on MAPK signalling (as antagonist) [2]: no effect; Block of PAR2 Ca2+ signalling elicited via protease activation [3]: blocks PAR2 Ca^2+ signalling; Block of PAR2 Ca2+ signalling elicited via peptidomimetics [3]: blocks PAR2 Ca^2+ signalling
No Activity at PAR2 Detected	2at-SRGR-PEG3-Hdc [Compound 7]	
PAR2 Agonist and Antagonist	2at-TIGR-PEG3-Hdc (2at-TIGR-{PEG3′-Hdc}) [Compound 14]	MAPK pathway profile (agonist/antagonist) [2]: Full MAPK agonist; Effect on MAPK signalling (as antagonist) [2]: without effects on MAPK signalling; Ca2+ signalling profile (agonist/antagonist) [3]: Partial Ca^2+ signalling agonist and potent antagonist (low concentrations); Block of PAR2 Ca2+ signalling elicited via protease activation [3]: blocked PAR2-dependent Ca^2+ signalling; Block of PAR2 Ca2+ signalling elicited via peptidomimetics [3]: blocked PAR2-dependent Ca^2+ signalling; RTCA signalling profile (agonist/antagonist) ([1]; listed as C608): Partial RTCA agonist and potent anatagonist (low concentrations)
No Activity at PAR2 Detected	2at-TKGR-PEG3-Hdc [Compound 10]	
PAR2 Agonist	2at-VIGR-PEG3-Hdc [Compound 17]	
PAR2 Agonist	2at-homoserine-IGR-PEG3-Hdc [Compound 21]	
No Activity at PAR2 Detected	2at-penicillamine-IGR-PEG3-Hdc [Compound 22]	

Substance	Compound Summary as Determined by RTCA Screen [1]	also measured
2at-hydroxyproline-IGR-PEG3-Hdc [Compound 20]	No Activity at PAR2 Detected	
